ChEMBL document CHEMBL5370538, “Discovery of novel 6-p-tolyl-3-(3,4,5-trimethoxybenzyl)-7H-[1,2,4]triazolo[3,4-b][1,3,4]thiadiazine derivative as a potent tubulin inhibitor with promising in vivo antitumor activity” (Eur J Med Chem, 2023)
pIC50: −log10 of the molar value. Activity calls are given as the source filed them. The rule behind the calls is not given here.

How the values were obtained:
[1] = Volume of distribution at steady state in Sprague-Dawley rat at 10 mg/kg,po measured upto 24 hrs by LC-MS/MS analysis; format: ADME, organism-based; conditions: in vivo
[2] = tested on: HeLa; test: Induction of apoptosis in human HeLa cells assessed as viable cells at 0.06 uM incubated for 24 hrs Annexin V-FITC/PI staining based flow cytometry analysis (Rvb= 95.9 %); format: functional; conditions: read-out: Activity
[3] = Volume of distribution at steady state in Sprague-Dawley rat at 2 mg/kg,iv measured upto 24 hrs by LC-MS/MS analysis; format: ADME, organism-based; conditions: in vivo
[4] = tested on: HeLa; test: Induction of apoptosis in human HeLa cells assessed as late apoptotic cells at 0.06 uM incubated for 24 hrs Annexin V-FITC/PI staining based flow cytometry analysis (Rvb= 2.13 %); format: functional
[5] = Clearance in Sprague-Dawley rat at 10 mg/kg,po measured upto 24 hrs by LC-MS/MS analysis; format: ADME, organism-based; conditions: in vivo
[6] = molecular target: Tubulin (Homo sapiens) (UniProt P68371+Q9H4B7+P0DPH7+P68366+Q13509+Q71U36+P04350+Q3ZCM7+P07437+P68363+Q9BQE3+Q6PEY2+Q13885+Q9BVA1+Q9BUF5); test: Inhibition of tubulin polymerization (unknown origin) at 10 uM measured for 20 mins in presence of GTP by spectrophotometry analysis relative to control; format: protein-complex assay
[7] = Tmax in Sprague-Dawley rat at 2 mg/kg,iv measured upto 24 hrs by LC-MS/MS analysis; format: ADME, organism-based; conditions: in vivo
[8] = tested on: HeLa; test: Induction of cell cycle arrest in human HeLa cells assessed as accumulation of cells at G2/M phase at 0.06 uM incubated for 24 hrs by propidium iodide staining based flow cytometry (reference value: 17.38 %); format: functional
[9] = tested on: HeLa; test: Induction of apoptosis in human HeLa cells assessed as late apoptotic cells at 0.03 uM incubated for 24 hrs Annexin V-FITC/PI staining based flow cytometry analysis (Rvb= 2.13 %); format: functional
[10] = tested on: HeLa; test: Induction of apoptosis in human HeLa cells assessed as early apoptotic cells at 0.03 uM incubated for 24 hrs Annexin V-FITC/PI staining based flow cytometry analysis (Rvb= 1.85 %); format: functional
[11] = Cmax in Sprague-Dawley rat at 10 mg/kg,po measured upto 24 hrs by LC-MS/MS analysis; format: ADME, organism-based; design: time < 24 hrs, dose 10 mg/kg, route po; conditions: in vivo
[12] = tested on: HeLa; test: Induction of cell cycle arrest in human HeLa cells assessed as accumulation of cells at G0/G1 phase at 0.12 uM incubated for 24 hrs by propidium iodide staining based flow cytometry (reference value: 62.4 %); format: functional
[13] = tested on: HeLa; test: Induction of apoptosis in human HeLa cells assessed as late apoptotic cells at 0.12 uM incubated for 24 hrs Annexin V-FITC/PI staining based flow cytometry analysis (Rvb= 2.13 %); format: functional
[14] = Tmax in Sprague-Dawley rat at 10 mg/kg,po measured upto 24 hrs by LC-MS/MS analysis; format: ADME, organism-based; conditions: in vivo
[15] = tested on: HeLa; test: Induction of cell cycle arrest in human HeLa cells assessed as accumulation of cells at S phase at 0.12 uM incubated for 24 hrs by propidium iodide staining based flow cytometry (reference value: 20.22 %); format: functional
[16] = MRT (0-infinity) in Sprague-Dawley rat at 10 mg/kg,po measured upto 24 hrs by LC-MS/MS analysis; format: ADME, organism-based; conditions: in vivo
[17] = tested on: MDA-MB-231; test: Antiproliferative activity against human MDA-MB-231 cells assessed as cell growth inhibition incubated for 48 hrs by MTT assay; format: functional, cell-based; conditions: MDA-MB-231, 48 h
[18] = tested on: HeLa; test: Induction of apoptosis in human HeLa cells assessed as necrotic cells at 0.03 uM incubated for 24 hrs Annexin V-FITC/PI staining based flow cytometry analysis (Rvb= 0.12 %); format: functional
[19] = Cmax in Sprague-Dawley rat at 2 mg/kg,iv measured upto 24 hrs by LC-MS/MS analysis; format: ADME, organism-based; design: time < 24 hrs, dose 2 mg/kg, route iv; conditions: in vivo
[20] = AUC (0-t) in Sprague-Dawley rat at 2 mg/kg,iv measured upto 24 hrs by LC-MS/MS analysis; format: ADME, organism-based; design: dose 2 mg/kg, time < 24 hrs, route iv; conditions: in vivo
[21] = molecular target: Tubulin; test: Inhibition of tubulin polymerization (unknown origin) measured for 20 mins in presence of GTP by spectrophotometry analysis; format: protein-complex assay, Homo sapiens
[22] = Clearance in Sprague-Dawley rat at 2 mg/kg,iv measured upto 24 hrs by LC-MS/MS analysis; format: ADME, organism-based; conditions: in vivo
[23] = tested on: HeLa; test: Induction of cell cycle arrest in human HeLa cells assessed as accumulation of cells at G2/M phase at 0.12 uM incubated for 24 hrs by propidium iodide staining based flow cytometry (reference value: 17.38 %); format: functional
[24] = tested on: A549; test: Antiproliferative activity against human A549 cells assessed as cell growth inhibition incubated for 48 hrs by MTT assay; format: functional, cell-based; conditions: A549, 48 h
[25] = tested on: HeLa; test: Induction of apoptosis in human HeLa cells assessed as early apoptotic cells at 0.06 uM incubated for 24 hrs Annexin V-FITC/PI staining based flow cytometry analysis (Rvb= 1.85 %); format: functional
[26] = tested on: A549; test: Antitumor activity against human A549 cells xenografted in Balb/c mouse assessed as inhibition of tumor weight at 60 mg/kg,ip administrated for 7 days; format: functional, organism-based; conditions: time 7.0 day
[27] = Antiproliferative activity against human HEK293 cells assessed as cell growth inhibition incubated for 48 hrs by MTT assay; format: toxicity, cell-based
[28] = Oral bioavailability in Sprague-Dawley rat at 10 mg/kg measured upto 24 hrs by LC-MS/MS analysis; format: ADME, organism-based; conditions: in vivo
[29] = tested on: HeLa; test: Induction of cell cycle arrest in human HeLa cells assessed as accumulation of cells at G0/G1 phase at 0.03 uM incubated for 24 hrs by propidium iodide staining based flow cytometry (reference value: 62.4 %); format: functional
[30] = tested on: HeLa; test: Induction of cell cycle arrest in human HeLa cells assessed as accumulation of cells at G0/G1 phase at 0.06 uM incubated for 24 hrs by propidium iodide staining based flow cytometry (reference value: 62.4 %); format: functional
[31] = tested on: HeLa; test: Induction of cell cycle arrest in human HeLa cells assessed as accumulation of cells at S phase at 0.03 uM incubated for 24 hrs by propidium iodide staining based flow cytometry (reference value: 20.22 %); format: functional
[32] = AUC (0-infinity) in Sprague-Dawley rat at 2 mg/kg,iv measured upto 24 hrs by LC-MS/MS analysis; format: ADME, organism-based; design: dose 2 mg/kg, time < 24 hrs, route iv; conditions: in vivo
[33] = tested on: HeLa; test: Induction of apoptosis in human HeLa cells assessed as viable cells at 0.12 uM incubated for 24 hrs Annexin V-FITC/PI staining based flow cytometry analysis (Rvb= 95.9 %); format: functional; conditions: read-out: Activity
[34] = tested on: HeLa; test: Induction of cell cycle arrest in human HeLa cells assessed as accumulation of cells at G2/M phase at 0.03 uM incubated for 24 hrs by propidium iodide staining based flow cytometry (reference value: 17.38 %); format: functional
[35] = MRT (0-t) in Sprague-Dawley rat at 10 mg/kg,po measured upto 24 hrs by LC-MS/MS analysis; format: ADME, organism-based; conditions: in vivo
[36] = Half life in Sprague-Dawley rat at 2 mg/kg,iv measured upto 24 hrs by LC-MS/MS analysis; format: ADME, organism-based; conditions: in vivo
[37] = tested on: HT-29; test: Antiproliferative activity against human HT-29 cells assessed as cell growth inhibition incubated for 48 hrs by MTT assay; format: functional, cell-based; conditions: HT-29, 48 h
[38] = MRT (0-t) in Sprague-Dawley rat at 2 mg/kg,iv measured upto 24 hrs by LC-MS/MS analysis; format: ADME, organism-based; conditions: in vivo

Vdss [1]: 1036.2 L/kg
Vdss [3]: 91.5 L/kg
CL/F [5]: 2180 mL/min/kg
inhibition [6]: 43%
Tmax [7]: 6 min
Cmax [11]: 28.4 ng/mL
Tmax [14]: 4.3 h
MRT inf [16]: 7.9 h
pIC50 [17]: 5.72
Cmax [19]: 670 ng/mL
AUC(0-t) at 24 h [20]: 307 ng·h/mL
pIC50 [21]: 4.95
CL [22]: 118 mL/min/kg
pIC50 [24]: 6.02
bioavailability [28]: 11.6%
AUC(0-inf) [32]: 310 ng·h/mL
MRT last at 24 h [35]: 6.4 h
half-life [36]: 5.3 h
pIC50 [37]: 6.24
MRT last at 24 h [38]: 1.2 h
SMILES: COc1cc(Cc2nnc3n2N=C(c2ccc(C)cc2)CS3)cc(OC)c1OC
viability at 0.06 µM [2]: 74.7%
Activity [4]: 7.44%
Activity [8]: 69.71%
Activity [9]: 4.9%
Activity [10]: 18.6%
Activity [12]: 0.51%
Activity [13]: 9.21%
Activity [15]: 8.4%
Activity [18]: 0.57%
Activity [23]: 91.09%
Activity [25]: 17.4%
Activity [26]: Active
IC50 at 48 h [27]: > 100 µM
Activity [29]: 52.76%
Activity [30]: 1.94%
Activity [31]: 19.86%
viability at 0.12 µM [33]: 65.2%
Activity [34]: 27.37%
